Data set [1] concerns Mycobacterium aurum DSM 43999 (ATCC 23366). The data set can be described thus: Microdilution broth, modified Microplate Alamar Blue Assay, whole cell growth inhibition. The data set is classed as cell-based. As to conditions: Mycolicibacterium aurum; in vitro, Middlebrook 7H9 broth, resazurin; read-out: MIC Mycobacterium aurum. Background: In broth dilution the organism is exposed to a series of concentrations in liquid medium.

The format of data set [2] is physicochemical. In a few lines:
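Broth microdilution per EUCAST, slightly modified, against clinically relevant fungal and bacterial strains; MIC expressed in µM.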

Data set [3] relates to M. avium ssp. avium CNCTC My 80/72 (ATCC 15769). Briefly: 96 well plate microdilution broth method with Alamar Blue. The data set is classed as cell-based. Particulars: Mycobacterium avium, ATCC15769; Middlebrook 7H9 broth pH 6.6; read-out: MIC Mycobacterium avium.
Data set [4] relates to Mycobacterium tuberculosis H37Ra ITM-M006710 (ATCC 9431). The data set can be described thus: Microdilution broth, modified Microplate Alamar Blue Assay, whole cell growth inhibition. The data set is classed as cell-based. As to conditions: Mycobacterium tuberculosis; in vitro, Middlebrook 7H9 broth, resazurin; read-out: MIC Mtb H37Ra.
Data set [5] relates to M. kansasii CNCTC My 235/80 (ATCC 12478). The data set can be described thus: 96 well plate microdilution broth method with Alamar Blue. The data set is classed as cell-based. As to conditions: Mycobacterium kansasii, ATCC12478; Middlebrook 7H9 broth pH 6.6; read-out: MIC Mycobacterium kansasii.
Data set [6] has as its system Mycobacterium smegmatis DSM 43465 (ATCC 607). The data set can be described thus: Microdilution broth, modified Microplate Alamar Blue Assay, whole cell growth inhibition. The data set is classed as cell-based. Particulars: Mycolicibacterium smegmatis; in vitro, Middlebrook 7H9 broth, resazurin; read-out: MIC Mycobacterium smegmatis.
For a further data set, the system named is HepG2 cells. The data set can be described thus: HepG2 cytotoxicity, CellTiter 96 (MTS) assay. It counts as cell-based, human. Particulars: for IC50: Homo sapiens, HepG2, 24 h incubation, > means higher concentration not reproducible due to precipitation, read-out: HepG2 IC50; for SI, selectivity index: IC50 (HepG2)/MIC against Mtb H37Ra (in µM).
The subject of the next data set is Serratia marcescens. The data set can be described thus: Antibacterial microdilution broth method (EUCAST). It counts as cell-based. As to conditions: 48 h, standards, read-out: MIC against Serratia marcescens.
Data set [7] has as its system Escherichia coli ATCC 25922, CCM 3954. The data set can be described thus: Antibacterial microdilution broth method (EUCAST). The data set is classed as cell-based. Particulars: 48 h, read-out: MIC against Escherichia coli.
Data set [8] has as its system Staphylococcus aureus spp.aureus ATCC 29213, CCM 4223. Briefly: Antibacterial microdilution broth method (EUCAST). It counts as cell-based. As to conditions: 48 h, read-out: MIC against Staphylococcus aureus.
Data set [9] relates to Pseudomonas aeruginosa ATCC 27853, CCM 3955. Briefly: Antibacterial microdilution broth method (EUCAST). The data set is classed as cell-based. As to conditions: 48 h, read-out: MIC against Pseudomonas aeruginosa.
Data set [10] relates to Staphylococcus epidermidis ATCC 12228, CCM 4418. The data set can be described thus: Antibacterial microdilution broth method (EUCAST). The data set is classed as cell-based. Particulars: 48 h, read-out: MIC against Staphylococcus epidermidis.
The subject of data set [11] is Staphylococcus aureus methicillin resistant ATCC 43300, CCM 4750. Briefly: microbe, parasite or virus in culture. Particulars: 48 h, read-out: MIC against Staphylococcus aureus methicillin resistant. The data set is classed as cell-based.
The test system of data set [12] is Klebsiella pneumoniae ATCC 10031, CCM 4415. Briefly: Antibacterial microdilution broth method (EUCAST). As to conditions: Klebsiella pneumoniae, ATCC10031|CCM4415, 48 h, read-out: MIC against Klebsiella pneumoniae.
The test system of data set [13] is Enterococcus faecalis ATCC 29212, CCM 4224. Briefly: Antibacterial microdilution broth method (EUCAST). It counts as cell-based. Particulars: 48 h, read-out: MIC against Enterococcus faecalis.

These results are taken from paper PMC7180572, “5-Alkylamino-N-phenylpyrazine-2-carboxamides: Design, Preparation, and Antimycobacterial Evaluation” (Molecules, 2020).

In brackets after ≈: the same amount, converted by molar mass.

By IC50 is commonly meant the point on the concentration scale where inhibition reaches its midpoint. The term melting point denotes the temperature, or range, at which the solid turns liquid.

Turning to `CCCCCCNc1cnc(C(=O)Nc2ccc(Cl)cc2O)cn1` [Compound 6d, N-(4-chloro-2-hydroxyphenyl)-5-(hexylamino)pyrazine-2-carboxamide], the melting point lay in the range of 201.7 to 204.9 °C. The MIC in [1] is at least 500 µg/mL. Besides, the “Solubility problem in antibacterial/antifungal testing” value in [2] is “did not dissolve in DMSO”. Further, the MIC in [3] was above 100 µg/mL. In addition, the MIC in [4] was found to be 3.13 µg/mL (≈ 8.97 µM). For the same molecule, the MIC in [5] was 25 µg/mL (≈ 71.7 µM). For the same molecule, the MIC in data set [6] was 3.91 µg/mL (≈ 11.2 µM). In the data set with HepG2 cells, the IC50 is above 50 µM and the “SI, selectivity index” value is reported as above 5.27.
On to `O=C(O)c1cn(C2CC2)c2cc(N3CCNCC3)c(F)cc2c1=O` [CPX, ciprofloxacin, reference compound], for which the MIC in [1] is 0.0156 to 0.0313 µg/mL (≈ 0.0471 to 0.0945 µM); in the data set with Serratia marcescens, 0.256 µg/mL (≈ 0.773 µM); in data set [4], 0.125 to 0.25 µg/mL (≈ 0.377 to 0.754 µM); in data set [6], 0.0625 to 0.125 µg/mL (≈ 0.189 to 0.377 µM).
`CCCCCNc1cnc(C(=O)Nc2ccc(Cl)cc2O)cn1` [Compound 6c, N-(4-chloro-2-hydroxyphenyl)-5-(pentylamino)pyrazine-2-carboxamide] returned a melting point of 206.5 to 208.7 °C. In addition, the MIC in [1] is at least 500 µg/mL. In addition, in data set [2], the “Solubility problem in antibacterial/antifungal testing” value is “did not dissolve in DMSO”. In [3], the MIC was above 100 µg/mL. The MIC in data set [4] was at least 500 µg/mL. The MIC in data set [5] was 25 µg/mL (≈ 74.7 µM). The MIC in [6] was 3.91 µg/mL (≈ 11.7 µM). For the same molecule, the IC50 in the data set on HepG2 cells came out at 81.1 µM.
Turning to `CNC(C)C1CCC(N)C(OC2C(N)CC(N)C(OC3OCC(C)(O)C(NC)C3O)C2O)O1` (centres unmarked) [gentamicin, reference compound], the MIC in [7] was 1 to 2 µg/mL (≈ 2.09 to 4.19 µM); in data set [8] it was 1 µg/mL (≈ 2.09 µM); in the data set with Serratia marcescens, 2 µg/mL (≈ 4.19 µM); in data set [9], 0.5 µg/mL (≈ 1.05 µM); in [10], above 8 µg/mL; in [11] it was 16 to 32 µg/mL (≈ 33.5 to 67 µM). In addition, the MIC was above 8 µg/mL in data set [12] and 8 µg/mL (≈ 16.8 µM) in [13].
Regarding `CCCCCCCCNc1cnc(C(=O)Nc2ccc(O)cc2)cn1` [Compound 3f, N-(4-hydroxyphenyl)-5-(octylamino)pyrazine-2-carboxamide], the melting point is 142 to 143 °C. In [1], the MIC is at least 250 µg/mL. Moreover, the “Solubility problem in antibacterial/antifungal testing” value in data set [2] is on record as “did not dissolve in DMSO”. The MIC in [3] is above 100 µg/mL. Also, the MIC in [4] amounted to 3.13 µg/mL (≈ 9.14 µM). Further, in data set [5], the MIC turned out to be 6.25 µg/mL (≈ 18.3 µM). Further, in data set [6], the MIC is at least 250 µg/mL. Moreover, in the data set with HepG2 cells, the IC50 was 60.2 µM and the “SI, selectivity index” value came to 6.6.
